Data on nine molecules can be found in patent US8895769B2, “Silicon-containing carboxylic acid derivative” (Kemphys Ltd., priority 2011, dated 2014).

What is called melting point is the temperature, or range, at which the solid turns liquid.

One data set deals with T1, gabapentin receptor (Rattus norvegicus, UniProt P54290).
T1 construct: a gabapentin receptor was prepared from the brains of Wister rats; from tissue; host or cells: Wistar rat brain, prepared by the method of Suman-Chauhan et al. 1993
The data set can be described thus: Binding to gabapentin receptor (inhibition of [3H]gabapentin binding). The conditions noted are these: compound 1 μM; 0.02 μM [3H] gabapentin; receptor from brains of Wister rats. The method, then:
According to the method of Suman-Chauhan et al. (Eur. J. Pharmacol, 244 (3), pp. 293-301, 1993), a gabapentin receptor was prepared from the brains of Wister rats. Binding of the following compounds (1 μM) to the gabapentin receptor was investigated on the basis of inhibition of binding of gabapentin in the presence of 0.02 μM [^3H] gabapentin. As a result, the following inhibition ratios were observed. • 4-Amino-3-(trimethylsilyl)butanoic acid: 35% • 4-Amino-3-(t-butyldimethylsilyl)butanoic acid: 13% • 4-Amino-3-(trimethylsilylmethyl)butanoic acid: 28% • 4-Amino-3-(dimethyl-n-octylsilyl)butanoic acid: 32%

Another data set has as its system rat Chung model. Briefly: Analgesic action test using Chung model. It is filed as in vivo. As to conditions: single oral administration, 30 minutes after, physical stimulation, N=6. The method, then:
A rat Chung model was used. 4-Amino-3-(trimethylsilyl)butanoic acid (Compound A), 4-amino-3-(trimethylsilylmethyl)butanoic acid (Compound B), 4-amino-3-[(1-methyl-1-silacyclopentan-1-yl)methyl]butanoic acid (Compound C), 4-(1-methyl-1-silacyclohexan-1-yl)-3-cyanobutanoic acid (Compound D), and pregabalin (positive control, Compound E) were each orally administered once to the rats, and analgesic action was examined 30 minutes thereafter on the basis of pain threshold values obtained with a physical stimulation (total number of groups: 11, N=6). As a result, the pain threshold values (g) of the agent-administered groups and the control group were as follows. • Control (0.5% MC): 5.3±0.4 • Compound A: 7.8±0.5 (60 mg/kg), 6.2±0.4 (20 mg/kg) • Compound B: 7.9±0.4 (60 mg/kg), 5.4±0.2 (20 mg/kg) • Compound C: 8.8±0.3 (60 mg/kg), 5.7±0.6 (20 mg/kg) • Compound D: 7.3±0.5 (60 mg/kg), 4.8±0.2 (20 mg/kg) • Compound E: 8.3±0.2 (30 mg/kg), 6.3±0.3 (10 mg/kg)

T1 sequence (P54290 25-944 limits assumed): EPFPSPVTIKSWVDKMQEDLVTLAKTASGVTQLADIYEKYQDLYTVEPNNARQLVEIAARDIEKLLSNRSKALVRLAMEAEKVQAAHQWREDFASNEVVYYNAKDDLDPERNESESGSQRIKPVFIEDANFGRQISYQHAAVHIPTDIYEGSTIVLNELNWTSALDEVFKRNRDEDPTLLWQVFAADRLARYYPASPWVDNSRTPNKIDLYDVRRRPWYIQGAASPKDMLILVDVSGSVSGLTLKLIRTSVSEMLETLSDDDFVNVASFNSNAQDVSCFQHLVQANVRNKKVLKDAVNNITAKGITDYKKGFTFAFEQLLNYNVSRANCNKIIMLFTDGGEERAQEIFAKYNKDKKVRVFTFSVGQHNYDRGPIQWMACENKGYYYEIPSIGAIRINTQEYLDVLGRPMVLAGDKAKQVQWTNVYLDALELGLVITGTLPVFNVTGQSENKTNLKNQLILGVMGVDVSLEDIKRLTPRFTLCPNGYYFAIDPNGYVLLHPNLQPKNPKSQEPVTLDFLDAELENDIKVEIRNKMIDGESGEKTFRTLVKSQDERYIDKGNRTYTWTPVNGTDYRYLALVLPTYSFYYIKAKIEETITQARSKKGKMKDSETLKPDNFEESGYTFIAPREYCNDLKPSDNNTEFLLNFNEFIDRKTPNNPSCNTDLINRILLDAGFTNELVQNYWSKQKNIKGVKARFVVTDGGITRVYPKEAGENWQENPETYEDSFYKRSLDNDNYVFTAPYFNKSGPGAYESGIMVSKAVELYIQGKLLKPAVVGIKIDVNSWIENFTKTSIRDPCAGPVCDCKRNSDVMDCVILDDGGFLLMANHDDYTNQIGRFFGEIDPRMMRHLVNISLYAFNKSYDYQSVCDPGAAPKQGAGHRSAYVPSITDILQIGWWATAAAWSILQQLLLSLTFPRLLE
T1 sequence (P54290 945-1091 limits assumed): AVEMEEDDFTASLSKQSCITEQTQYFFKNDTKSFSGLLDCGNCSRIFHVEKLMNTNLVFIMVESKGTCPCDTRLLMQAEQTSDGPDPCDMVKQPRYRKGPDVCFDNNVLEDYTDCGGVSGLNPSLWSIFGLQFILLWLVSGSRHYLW

`C[Si]1(C(CN)CC(=O)O)CCCCC1` (stereo not drawn) showed a melting point of 160 to 161.5 °C.
As to `C[Si]1(CC(CN)CC(=O)O)CCCCC1` (stereo not drawn), the melting point lay in the range of 140.5 to 143 °C.
Take `CCCCCCCC[Si](C)(C)C(CN)CC(=O)O` (stereo not drawn) [4-amino-3-(dimethyl-n-octylsilyl)butanoic acid]: at gabapentin receptor, the “inhibition ratio (inhibition of binding of gabapentin)” value (shortened to “inhibition ratio”) came out at 32%.
As to `CC(C)(C)[Si](C)(C)C(CN)CC(=O)O` (stereo not drawn) [4-amino-3-(tert-butyldimethylsilyl)butanoic acid], on gabapentin receptor, the “inhibition ratio” value was 13%.
`C[Si](C)(C)C(CN)CC(=O)O` (stereo not drawn) [Compound A, 4-amino-3-(trimethylsilyl)butanoic acid]: the melting point was 199 to 201 °C. This molecule also showed a pain threshold value in the data set on rat Chung model (20 mg/kg) of 6.2 ± 0.4 g. In addition, in the data set on rat Chung model (60 mg/kg), the pain threshold value stood at 7.8 ± 0.5 g. Further, the “inhibition ratio” value at gabapentin receptor came out at 35%.
In the case of `C[Si](C)(C)CC(CN)CC(=O)O` (stereo not drawn) [Compound B, 4-amino-3-(trimethylsilylmethyl)butanoic acid], the pain threshold value with rat Chung model (20 mg/kg) turned out to be 5.4 ± 0.2 g; in the data set on rat Chung model (60 mg/kg), 7.9 ± 0.4 g. Besides, at gabapentin receptor, the “inhibition ratio” value is recorded as 28%.
Take `C[Si]1(CC(CN)CC(=O)O)CCCC1` (stereo not drawn) [Compound C, 4-amino-3-[(1-methyl-1-silacyclopentan-1-yl)methyl]butanoic acid]: the melting point lay in the range of 133 to 135 °C. Moreover, the pain threshold value with rat Chung model (20 mg/kg) is 5.7 ± 0.6 g. Besides, the pain threshold value with rat Chung model (60 mg/kg) was 8.8 ± 0.3 g.
With `C[Si]1(CC(C#N)CC(=O)O)CCCCC1` (stereo not drawn) [Compound D, 4-(1-methyl-1-silacyclohexan-1-yl)-3-cyanobutanoic acid], the pain threshold value with rat Chung model (20 mg/kg) was found to be 4.8 ± 0.2 g; in the data set on rat Chung model (60 mg/kg), 7.3 ± 0.5 g.
On to `CC(C)C[C@H](CN)CC(=O)O` [Compound E, (S)-3-(aminomethyl)-5-methylhexanoic acid, reference compound], for which the pain threshold value in the data set with rat Chung model (10 mg/kg) turned out to be 6.3 ± 0.3 g; in the data set with rat Chung model (30 mg/kg) it was 8.3 ± 0.2 g.
